Results as given in patent US12441733B2, “Substituted 2,4-dioxotetrahydropyrimidines as intermediates in the synthesis of bruton's tyrosine kinase inhibitors” (Novartis AG, priority 2018, dated 2025).

Biological target: T1, IKZF3-GFP (Homo sapiens, UniProt Q96SW2+Q9UKT9)
T1 construct: expressed in transfected cells; host or cells: HEK293A (Invitrogen R70507), lentiviral transduction with pLenti6-IKZF3-GFP-Ires-RFP, blasticidin selection
Test: IKZF3-GFP protein abundance flow cytometry assay in HEK293A cells
Type: cell-based
Details: Table 3, positive control compounds; % protein remaining at maximum degradation
Experimental: BTK-GFP and IKZF3-GFP protein abundance flow cytometry assay in HEK293A cells:
Degradation of BTK or IKZF3 was measured in HEK293A cells (Invitrogen R70507) expressing either BTK-GFP and RFP or IKZF3-GFP and RFP from a stably integrated bicistronic BTK-GFP-iresRFP or IKZF3-GFP-iresRFP construct, respectively. Reduction of the GFP signal measured by flow cytometry served as readout for BTK or IKZF3 degradation after degrader treatment.
By analogy the bicistronic pLenti6-IKZF3-GFP-iresRFP was engineered by gateway cloning of IKZF3 from a pENTR221-IKZF3(STOP-Leu) construct into the previously described pLenti6-DEST-GFP-Ires-RFP vector using the LR Clonase kit (Invitrogen 11791-019) according to the manufacturer's manual. All vectors described have been sequenced for verification.
ii) Engineering of Stably Expressing 293A BTK-GFP-Ires-RFP and IKZF3-GFP-Ires-RFP Sensor Cells
293A BTK-GFP-Ires-RFP and IKZF3-GFP-ires-RFP sensor cells were generated by lentiviral vector transduction using the pLenti6-BTK-GFP-Ires-RFP or pLenti6-IKZF3-GFP-Ires-RFP sensor construct described before. Lentiviral particles were produced in HEK293FT cells (Invitrogen R70007) by co-transfection of 500 ng pLenti6-BTK-GFP-ires-RFP or pLenti6-IKZF3-GFP-Ires-RFP, 500 ng delta8.71 and 200 ng pVSVG diluted in 100 μl OptiMEM serum free medium (Invitrogen #11058-021) that was mixed after 5 min preincubation with 3 μl of Lipofectamine2000 (Invitrogen #11668-019) in 97 μl OptiMEM serum free medium. The mix was incubated for another 20 min at RT and then added on 1 ml of a freshly prepared suspension of HEK293FT cells in a well of a 6-well plate (concentration 1.2×10^6 cells/ml). 1 day after transfection, the medium was replaced with 1.5 ml of complete growth medium (DMEM high Glucose+10% FCS+1% L-Glutamine+1% NEAA+1% NaPyr.). 48 h post transfection supernatant containing viral transducing particles was collected and frozen at −80° C.
Two days before transduction with viral particles 1×10^5 HEK293A cells (Invitrogen R70507) were seeded in 2 ml growth medium in a well of a 6-well plate. Infection was performed with 90 μl of collected supernatant containing viral transducing particles in 1 ml medium including 8 μg/ml polybrene. 24 h post infection, stably transfected cells were selected with blasticidin at a concentration of 8 μg/ml.
Iii) Quantitative BTK-GFP and IKZF3-GFP Abundance Measurements
Stable HEK293A-BTK-GFP-iresRFP cells were maintained in complete growth medium (DMEM high Glucose+10% FCS+1% L-Glutamine+1% NEAA+1% NaPyr.) with passaging performed twice per week. On Day 0, HEK293A-BTK-GFP-iresRFP or HEK293A-IKZF3-GFP-iresRFP and HEK293A-iresRFP cells were seeded at 10,000 cells/well in a 96-well microtiter plate in 260 μl complete medium. On Day 1, cells were treated in duplicate with 10-point 1:3 dilution series of compound using the HP D300 Digital Dispenser (Tecan). DMSO concentrations were normalized across the plate to 0.1%. On Day 2, after 24 h of incubation at 37° C., treatment media was discarded, cells rinsed with 100 μl/well PBS and then detached using 40 μl trypsin/well for 5 min. Trypsin was neutralized with 100 μl/well PBS+20% FCS). Flow cytometry was performed on the samples using the BD FACS CANTO II (Becton Dickinson). Cell identification was then performed using forward (FSC) vs. side scatter (SSC) plots. […] Median GFP values for 5,000 single cells are used to determine BTK levels. Median GFP values from HEK293A-iresRFP are used as a background signal and thus defining 0% BTK signal. Median GFP values from DMSO treated HEK293A-BTK-GFP-iresRFP or HEK293A-IKZF3-GFP-iresRFP are used to define 100% BTK signal for subsequent DC50 curves (concentration at 50% BTK degradation).

T1 sequence (Q9UKT9 whole entry): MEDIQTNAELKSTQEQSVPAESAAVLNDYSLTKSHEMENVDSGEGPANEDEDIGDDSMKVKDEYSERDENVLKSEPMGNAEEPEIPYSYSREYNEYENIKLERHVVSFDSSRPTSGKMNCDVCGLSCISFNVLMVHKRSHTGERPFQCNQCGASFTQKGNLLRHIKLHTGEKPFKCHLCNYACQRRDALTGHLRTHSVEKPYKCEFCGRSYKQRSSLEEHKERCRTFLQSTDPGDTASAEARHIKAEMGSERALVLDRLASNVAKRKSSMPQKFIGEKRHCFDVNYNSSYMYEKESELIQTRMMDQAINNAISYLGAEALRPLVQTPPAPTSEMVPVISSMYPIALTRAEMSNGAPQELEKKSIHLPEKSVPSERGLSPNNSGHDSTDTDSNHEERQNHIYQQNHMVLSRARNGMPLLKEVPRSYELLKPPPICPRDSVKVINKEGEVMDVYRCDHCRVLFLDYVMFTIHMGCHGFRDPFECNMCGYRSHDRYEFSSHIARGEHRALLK
T1 sequence (Q96SW2 whole entry): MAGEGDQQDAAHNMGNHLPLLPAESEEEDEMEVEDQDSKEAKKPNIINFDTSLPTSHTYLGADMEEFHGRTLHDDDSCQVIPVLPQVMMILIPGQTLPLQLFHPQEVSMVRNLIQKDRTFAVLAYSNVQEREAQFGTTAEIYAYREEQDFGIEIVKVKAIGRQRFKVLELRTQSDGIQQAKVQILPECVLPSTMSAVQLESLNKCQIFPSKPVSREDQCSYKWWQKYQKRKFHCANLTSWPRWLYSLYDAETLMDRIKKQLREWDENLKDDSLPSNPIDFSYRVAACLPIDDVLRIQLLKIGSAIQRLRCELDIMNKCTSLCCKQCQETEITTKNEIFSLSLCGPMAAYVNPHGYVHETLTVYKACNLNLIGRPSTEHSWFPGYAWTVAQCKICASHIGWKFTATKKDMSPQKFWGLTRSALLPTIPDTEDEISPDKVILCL
T1 sequence (Q16531 whole entry partner): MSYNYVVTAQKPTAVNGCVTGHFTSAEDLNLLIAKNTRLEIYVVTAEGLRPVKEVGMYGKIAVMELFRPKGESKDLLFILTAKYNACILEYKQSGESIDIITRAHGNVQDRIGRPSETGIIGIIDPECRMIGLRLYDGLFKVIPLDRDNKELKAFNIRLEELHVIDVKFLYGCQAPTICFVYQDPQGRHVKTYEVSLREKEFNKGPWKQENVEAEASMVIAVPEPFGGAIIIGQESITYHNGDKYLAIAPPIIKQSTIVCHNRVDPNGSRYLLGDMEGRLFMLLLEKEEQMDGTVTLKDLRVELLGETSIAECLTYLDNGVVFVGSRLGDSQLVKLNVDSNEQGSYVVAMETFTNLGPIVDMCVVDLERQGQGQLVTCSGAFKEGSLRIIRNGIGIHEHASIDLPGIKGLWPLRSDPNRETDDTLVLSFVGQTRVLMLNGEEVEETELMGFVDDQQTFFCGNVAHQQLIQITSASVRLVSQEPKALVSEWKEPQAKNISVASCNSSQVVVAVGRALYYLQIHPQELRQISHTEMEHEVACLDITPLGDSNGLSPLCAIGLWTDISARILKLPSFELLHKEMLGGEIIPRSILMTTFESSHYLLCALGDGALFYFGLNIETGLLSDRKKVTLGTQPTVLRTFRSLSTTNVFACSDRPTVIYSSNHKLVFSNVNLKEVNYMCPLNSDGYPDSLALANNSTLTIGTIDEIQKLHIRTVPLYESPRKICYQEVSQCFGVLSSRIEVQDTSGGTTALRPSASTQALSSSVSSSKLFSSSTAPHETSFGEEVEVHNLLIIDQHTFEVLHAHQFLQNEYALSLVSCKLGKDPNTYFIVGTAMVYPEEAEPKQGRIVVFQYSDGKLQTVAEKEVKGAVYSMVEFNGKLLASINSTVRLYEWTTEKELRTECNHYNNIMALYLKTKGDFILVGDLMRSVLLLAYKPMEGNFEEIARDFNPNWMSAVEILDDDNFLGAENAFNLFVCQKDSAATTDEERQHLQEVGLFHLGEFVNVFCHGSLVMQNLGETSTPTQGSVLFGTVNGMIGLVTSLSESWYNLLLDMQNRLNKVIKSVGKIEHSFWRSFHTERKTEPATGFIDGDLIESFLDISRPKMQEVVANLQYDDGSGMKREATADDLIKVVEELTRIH

Nc1cccc2c1C(=O)N(C1CCC(=O)NC1=O)C2=O (stereo not shown) [Pomalidomide, reference compound]
IKZF deg Amax: 13.2%
